The nature of data set [1]: Parallel Artificial Membrane Permeability Assay (PAMPA), GI. Format: in vitro ADME. The following applies: GI (intestinal) PAMPA, value in brackets. On the procedure:
Parallel Artificial Membrane Permeability Assay (PAMPA). Donor solution (0.5 mM) was prepared by diluting 1 mM dimethylsulfoxide (DMSO) compound stock solution using phosphate buffer (pH 7.4, 0.025 M). Filters were coated with 5 μL of a 1% (w/v) dodecane solution of phosphatidylcholine prepared from CHCl3 solution 10% w/v, for intestinal permeability. Donor solution (150 μL) was added to each well of the filter plate. To each well of the acceptor plate were added 300 μL of solution (50% DMSO in phosphate buffer). All compounds were tested in three different plates on different days. The sandwich was incubated for 5 h at room temperature under gentle shaking. After the incubation time, the plates were separated, and samples were taken from both receiver and donor sides and analyzed using LC with UV detection at 280 nm.
LC analysis were performed with a Varian Prostar HPLC system (Varian Analytical Instruments, USA) equipped with a binary pump with a manual injection valve and model Prostar 325 UV-VIS Detector. Chromatographic separations were conducted using a Polaris C18-A column (150-4.6 mm, 5 μm particle size) at a flow rate of 0.8 mL min^−1 with a mobile phase composed of 60% ACN/40% H2O.
Permeability (Papp) for PAMPA was calculated according to the following equation, obtained from Wohnsland and Faller and Sugano et al. equation with some modification in order to obtain permeability values in cm s^−1,
where VA is the volume in the acceptor well, VD is the volume in the donor well (cm^3), A is the “effective area” of the membrane (cm^2), t is the incubation time (s) and r the ratio between drug concentration in the acceptor and equilibrium concentration of the drug in the total volume (VD+VA). Drug concentration is estimated by using the peak area integration.
Membrane retentions (%) were calculated according to the following equation: […]
where r is the ratio between drug concentration in the acceptor and equilibrium concentration, D, A, and Eq represented drug concentration in the donor, acceptor and equilibrium solution, respectively.
For orientation: In PAMPA a lipid-coated filter parts donor from acceptor wells.

A further data set in a line: Water Solubility Assay. It is filed as physicochemical. Particulars: for LogS: from aqueous solubility; for Aq. Solub.: water, room temperature, 24-36 h. On the procedure:
Water Solubility Assay. Each solid compound (1 mg) was added to 1 mL of water. The samples were shaked in a shaker bath at room temperature for 24-36 h. The suspensions were filtered through a 0.45 μm nylon filter (Acrodisc), and the solubilized compound determined by LC-MS-MS assay. For each compound the determination was performed in triplicate.
For the quantification was used an LC-MS system consisted of a Varian apparatus (Varian Inc) including a vacuum solvent degassing unit, two pumps (212-LC), a Triple Quadrupole MSD (Mod. 320-LC) mass spectrometer with ES interface and Varian MS Workstation System Control Vers. 6.9 software. Chromatographic separation was obtained using a Pursuit C18 column (50×2.0 mm) (Varian) with 3 μm particle size and gradient elution: eluent A being ACN and eluent B consisting of water. […] The flow rate was 0.2 mL min^−1 and injection volume was 5 μL. The instrument operated in positive mode and parameters were: detector 1850 V, drying gas pressure 25.0 psi, desolvation temperature 300.0° C., nebulizing gas 40.0 psi, needle 5000 V and shield 600 V. Nitrogen was used as nebulizer gas and drying gas. Collision induced dissociation was performed using Argon as the collision gas at a pressure of 1.8 mTorr in the collision cell. Microsomal Stability Assay. […] The reaction was stopped by cooling on ice and adding 1.0 mL of acetonitrile. The reaction mixtures were then centrifuged, and the parent drug and metabolites were subsequently determined by LC-UV-MS. Chromatographic analysis was performed with an Agilent 1100 LC/MSD VL system (G1946C) (Agilent Technologies, Palo Alto, Calif.) constituted by a vacuum solvent degassing unit, a binary high-pressure gradient pump, an 1100 series UV detector, and an 1100 MSD model VL benchtop mass spectrometer.

Data set [2] addresses T1, Human recombinant DDX3 (DDX3 wt helicase) (Homo sapiens, UniProt O00571).
T1 construct: made in house
The experiment in a line: Helicase assay (anti-enzymatic activity against the DDX3 helicase). Format: biochemical. The following applies: for activity compared with compound EI01D: DDX3 helicase inhibition relative to EI01D. Here is the method:
The helicase activity of DDX3 wt was monitored by measuring the conversion of a double stranded (ds) RNA (labelled at the 5′-end of one strand with a 6-FAM fluorescent) into single stranded (ss) nucleic acid. A final concentration of 25 nM RNA substrate was used in the experiments, unless otherwise stated. Reactions were performed in 50 mM TrisHCl pH 7.5, 1 mM DTT, 0.2 mg/ml BSA, 5% glycerol and 100 μM ATP, 10 mM MgCl2 at 37° C. degrees for 10′ and stopped by adding EDTA 50 mM pH 8. Products were separated through non-denaturating 8% PAGE at 5 W for 4 hours in TBE buffer at 4° C. Substrates and products were quantified by laser scanning densitometry (Thyphoon-TRIO, GE Healthcare).
Human recombinant DDX3 was cloned, expressed and purified as described (Franca et al. Proteins 2007, 67, 1128-37).

Data set [3] has as its system Human breast adenocarcinoma cell line (MDA-MB-231). The experiment in a line: Cytotoxicity test / growth inhibition, MDA-MB-231. Particulars: MDA-MB-231, 48 hours, cell counting. It is filed as cell-based. Here is the method:
(§1) Cells were purchased from American Type Culture Collection (ATCC, Manassas, Va., USA). The LNCaP (ATCC® CRL-1740™), A549 (ATCC® CCL-185™), MDA-MB-231 (ATCC® CRM-HTB-26™), 22Rv1 (ATCC® CRL-2505™), HCT-116 (ATCC® CCL-247™) and PC3 (ATCC® CRL-1435™) cells were maintained in Roswell Park Memorial Institute 1640 medium (RPMI; Euroclone, ECB9006L) supplemented with 10% fetal bovine serum (Euroclone; ECS0180L), 2 mM L-glutamine, 100 units/mL penicillin and […] streptomycin at 37° C. in an atmosphere of 5% CO2/air. DU145 (ATCC® HTB-81™), and DAOY (ATCC® HTB-186™) cells were maintained in Eagle's minimal essential medium (EMEM; Euro-clone, ECM0445L) supplemented with 10% fetal bovine serum (Euroclone; ECS0180L), 2 mM L-glutamine, 100 units/ml penicillin and […] streptomycin at 37° C. in an atmosphere of 5% CO2/air. SH-SY5Y (ATCC® CRL-2266™), DBRTG (ATCC® CRL-2020™), HeLa (ATCC® CCL-2™), HN6 cells (kindly provided by Dr Silvio Gutkind, UCSD Medical Center, Moores Cancer Center USA, Chen J. J et al, Oncotarget 2013, 4, 206-217)), U2OS (ATCC® HTB-96™), RD18 cells (kindly provided by Dr P. Boccuni Memorial Sloan-Kettering Cancer Center, New York, USA Vella S. et al. Clin Epigenetics. 2015 6; 7-82), cells were maintained in Dulbecco's modified Eagle's medium (DMEM; Euroclone, ECB7501L) supplemented with 10% fetal bovine serum (Euroclone; ECS0180L), 2 mM L-glutamine, 100 units/ml penicillin and […] streptomycin at 37° C. in an atmosphere of 5% CO2/air.
(§2) Cell lines were seeded at appropriate densities in 2 mL growth medium in 6-wells culture plates 24 hours before the treatment with the inhibitor compounds. After 24 h the culture medium was removed and fresh medium containing increasing concentrations of chemical compounds was added to cells. The fixed final concentrations were: 0.1 μM, 1 μM, 10 μM, 100 μM. DMSO was the vehicle used for dilution of the compounds and its final concentration on cells was less than 0.2%. Medium-only containing wells were included as controls. Cells were incubated 48 hours with drugs and, then, cell viability was evaluated.
(§3) Cells were detached from each well of the 6-wells plates with 300 μL of Trypsin and suspended in culture medium to a final volume of 1 mL. Cell viability was then assessed through cell counting. Cells were diluted in 1:50 ratio of an isotonic buffered diluent, Isoton (Backman Coulter), following the manufacturer's instructions, and counted using an automated cell counter (Z2 series Coulter Counter, Beckman Coulter). Each cell count was performed in three replicates. The values corresponding to the relative survival of cells in presence of each chemical compound at single concentrations were normalized to the untreated controls. Then, the half maximal inhibitory concentration (IC50) value, which represent the drug concentration that is required to induce a 50% growth inhibition in vitro, was calculated with GraphPad Prism 6.0 software using the best fitting sigmoid curve.

The subject of data set [4] is Human osteosarcoma cell line (U2OS). The experiment in a line: Cytotoxicity test / growth inhibition, U2OS. It is filed as cell-based. The following applies: 48 hours, cell counting. On the procedure: as §1, §2, §3
For data set [5], the system named is Human head and neck squamous carcinoma cell line (HN6). In words: Cytotoxicity test / growth inhibition, HN6. Format: cell-based. The following applies: HN6, 48 hours, cell counting. On the procedure:
as §1, §2, §3

Data set [6] has as its system Human adenocarcinomic alveolar basal epithelial cell line (A549). The experiment in a line: Cytotoxicity test / growth inhibition, A549. It is filed as cell-based. The following applies: A549, 48 hours, cell counting. Here is the method:
as §1, §2, §3

These results are taken from patent US11000512B2, “Use of DDX3 inhibitors as antiproliferative agents” (AZIENDA OSPEDALIERA UNIVERSITARIA SENESE, priority 2016, dated 2021).

Structures are written as SMILES. A value given as a limit tells only on which side of the number the result lay.

T1 sequence (O00571 whole entry): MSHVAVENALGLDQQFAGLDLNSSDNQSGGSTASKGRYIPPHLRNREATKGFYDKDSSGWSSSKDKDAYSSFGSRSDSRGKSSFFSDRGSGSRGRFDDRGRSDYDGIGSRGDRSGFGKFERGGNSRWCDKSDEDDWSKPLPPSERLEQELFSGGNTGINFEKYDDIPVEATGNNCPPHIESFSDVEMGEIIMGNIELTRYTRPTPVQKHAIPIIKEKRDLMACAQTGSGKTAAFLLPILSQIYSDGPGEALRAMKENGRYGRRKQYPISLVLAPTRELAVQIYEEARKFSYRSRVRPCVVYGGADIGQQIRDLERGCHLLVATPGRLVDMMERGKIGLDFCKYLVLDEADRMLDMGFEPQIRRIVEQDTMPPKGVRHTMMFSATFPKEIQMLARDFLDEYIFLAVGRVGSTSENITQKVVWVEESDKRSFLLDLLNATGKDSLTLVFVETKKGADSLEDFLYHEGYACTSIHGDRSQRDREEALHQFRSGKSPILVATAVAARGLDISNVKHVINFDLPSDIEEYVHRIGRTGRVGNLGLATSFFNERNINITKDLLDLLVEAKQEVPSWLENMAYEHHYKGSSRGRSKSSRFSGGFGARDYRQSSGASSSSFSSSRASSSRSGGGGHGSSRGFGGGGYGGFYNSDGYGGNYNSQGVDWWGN

As for `COCCc1cn(-c2ccc(NC(=O)Nc3ccccc3C)cc2)nn1` [Compound 20f, 1-(4-(4-(2-methoxyethyl)-1H-1,2,3-triazol-1-yl)phenyl)-3-o-tolylurea], in data set [1], the “PAMPA GI (RM %) membrane retention” value is 7.4%.

For `Cc1c(Cl)cccc1NC(=O)Nc1ccc(-n2cc(CCC(C)C)nn2)cc1` [Compound 21b, 1-(3-chloro-2-methylphenyl)-3-(4-(4-isopentyl-1H-1,2,3-triazol-1-yl)phenyl)urea], the “PAMPA GI (RM %) membrane retention” value in data set [1] is 59.1%. Besides, in “Water Solubility Assay”, the LogS is reported as <−8.6 and the “Aq. Solub.” value was <0.001 µg/mL.

With `CC(C)CCc1cn(-c2ccc(NC(=O)Nc3ccccc3C(F)(F)F)cn2)nn1` [Compound 86, 1-(6-(4-isopentyl-1H-1,2,3-triazol-1-yl)pyridin-3-yl)-3-(2-(trifluoromethyl)phenyl)urea], the IC50 in data set [2] (DDX3 helicase activity, dsRNA unwinding, n.a = Compound not active, read-out: ID50 (the source's name)) came to 51 µM.

`CC(C)CCc1cn(-c2ccc(NC(=O)Nc3ccccc3F)cc2)nn1` [Compound 55a, 1-(2-fluorophenyl)-3-(4-(4-isopentyl-1H-1,2,3-triazol-1-yl)phenyl)urea]: the “activity compared with compound EI01D” value in data set [2] is listed as “approximately ten-fold more active”.

Turning to `Cc1ccccc1NC(=O)Nc1ccc(-n2cc(CCC(C)C)nn2)cc1` [Compound 20b, 1-(4-(4-isopentyl-1H-1,2,3-triazol-1-yl)phenyl)-3-o-tolylurea], in data set [1], the “PAMPA GI (RM %) membrane retention” value was determined as 26.7%. For the same compound, in the data set “Water Solubility Assay”, the LogS is reported as <−8.6 and the “Aq. Solub.” value was <0.001 µg/mL.

On to `CCOCn1nnc(-c2ccc(NC(=O)Nc3ccccc3C)cc2)n1` [Compound 50, 1-(4-(2-(ethoxymethyl)-2H-tetrazol-5-yl)phenyl)-3-(o-tolyl)urea], for which the IC50 in data set [3] came to 23.5 µM.

In turn, `CCCCc1nnc(-c2ccc(NC(=O)Nc3ccccc3C(F)(F)F)cc2)s1` [Compound 124, 1-(4-(5-butyl-1,3,4-thiadiazol-2-yl)phenyl)-3-(2-(trifluoromethyl)phenyl)urea] yielded an IC50 in data set [4] of 60.1 µM.

Take `CCCCn1nnc(-c2ccc(NC(=O)Nc3ccccc3C(F)(F)F)cc2)n1` [Compound 51, 1-(4-(2-butyl-2H-tetrazol-5-yl)phenyl)-3-(2-(trifluoromethyl)phenyl)urea]: the IC50 in data set [4] amounted to 51.5 µM; in data set [5] it was 16.4 µM.

On to `CC(C)CCc1cn(-c2ccc(NC(=O)Nc3ccccc3C(F)(F)F)cc2)nn1` [Compound 22b, 1-(4-(4-isopentyl-1H-1,2,3-triazol-1-yl)phenyl)-3-(2-(trifluoromethyl)phenyl)urea], for which, in data set [2], the “activity compared with compound EI01D” value is “approximately ten-fold more active”. In addition, the “PAMPA GI (RM %) membrane retention” value in data set [1] worked out at 24.8%. Also, the LogS in the data set “Water Solubility Assay” is recorded as <−8.6. In addition, the IC50 in data set [3] amounted to 13.1 µM.

Take `CCCC(C)C(F)c1cn(-c2ccc(NC(=O)Nc3ccccc3C(F)(F)F)cc2)nn1` (stereo not shown) [Compound 42c, 1-(4-(4-(1-fluoro-2-methylpentyl)-1H-1,2,3-triazol-1-yl)phenyl)-3-(2-(trifluoromethyl)phenyl) urea]: the IC50 amounted to 33.6 µM in data set [3], 57.2 µM in data set [6], 22.5 µM in data set [4] and 6.32 µM in data set [5].

On to `CC(C)CCc1cn(-c2ccc(NC(=O)Nc3cccc(F)c3)cc2)nn1` [Compound 55b, 1-(3-fluorophenyl)-3-(4-(4-isopentyl-1H-1,2,3-triazol-1-yl)phenyl)urea], for which the “activity compared with compound EI01D” value in data set [2] was “approximately ten-fold more active”.
